According to patent US9427415B2, “Methods and compositions for modifying sensorial perception” (The Procter & Gamble Company, priority 2014, dated 2016):
“And” between values parts separate entries of the source, which are not always exact repeats. Equal entries are not always repeated. Structures can show the parent of a compound that is named as a salt. Where two headings read alike, the source gives them in different places.

Key:
human TRPA1 = target: T1, human TRPA1 (Homo sapiens, UniProt O75762, K186N/R3C/R58T); experiment: Intracellular calcium (Fluo-4, FLIPR) activation of TRPA1 cells by GRAS compounds; assay type: cell-based; conditions: for activation at 1000 µM / activation at 100 µM: read-out: A1 activation, % of agonist value;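 for all read-outs here: TRPA1-expressing cells, fluorescence read on a FLIPR Tetra (ex 488 nm, em 514 nm) every 2 s for 10 min after compound addition, baseline subtracted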
T1 construct: expressed in transfected cells; pcDNA3 control cells
T1 sequence (O75762 whole entry R3C/R58T/K186N): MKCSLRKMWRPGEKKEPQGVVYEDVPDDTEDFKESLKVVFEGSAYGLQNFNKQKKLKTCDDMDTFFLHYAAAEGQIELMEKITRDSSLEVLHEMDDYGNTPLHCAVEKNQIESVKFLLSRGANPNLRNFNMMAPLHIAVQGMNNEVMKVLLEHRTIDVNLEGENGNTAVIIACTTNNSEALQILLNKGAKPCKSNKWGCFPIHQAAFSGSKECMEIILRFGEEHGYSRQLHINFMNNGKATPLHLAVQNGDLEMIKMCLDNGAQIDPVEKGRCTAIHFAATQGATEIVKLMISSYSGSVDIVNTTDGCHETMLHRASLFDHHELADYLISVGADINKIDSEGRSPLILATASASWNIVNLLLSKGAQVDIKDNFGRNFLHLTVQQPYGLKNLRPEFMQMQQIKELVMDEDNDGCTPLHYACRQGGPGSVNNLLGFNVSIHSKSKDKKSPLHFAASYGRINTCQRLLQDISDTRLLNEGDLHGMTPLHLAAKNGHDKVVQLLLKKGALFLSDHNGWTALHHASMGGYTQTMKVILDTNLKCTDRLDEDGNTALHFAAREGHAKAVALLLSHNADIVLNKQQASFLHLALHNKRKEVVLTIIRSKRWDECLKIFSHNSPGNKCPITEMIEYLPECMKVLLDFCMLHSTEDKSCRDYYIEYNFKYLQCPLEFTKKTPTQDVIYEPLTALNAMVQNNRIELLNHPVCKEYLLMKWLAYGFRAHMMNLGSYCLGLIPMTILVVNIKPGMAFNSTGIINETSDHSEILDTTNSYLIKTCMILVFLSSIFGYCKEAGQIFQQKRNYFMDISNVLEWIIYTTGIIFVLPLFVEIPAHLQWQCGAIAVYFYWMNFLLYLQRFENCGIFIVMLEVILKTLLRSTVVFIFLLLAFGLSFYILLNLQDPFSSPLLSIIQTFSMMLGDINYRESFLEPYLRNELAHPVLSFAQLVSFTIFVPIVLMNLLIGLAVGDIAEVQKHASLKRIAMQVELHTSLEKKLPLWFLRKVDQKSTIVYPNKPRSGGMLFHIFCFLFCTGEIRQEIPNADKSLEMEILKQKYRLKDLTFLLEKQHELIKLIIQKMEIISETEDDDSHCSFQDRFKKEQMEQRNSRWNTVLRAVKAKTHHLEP

TRPA1V1 = experiment: Intracellular calcium (Fluo-4, FLIPR) activation of TRPA1V1 cells (co-expressing TRPA1 and TRPV1) by GRAS compounds; assay type: cell-based, human;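 note: HEK293 cells co-expressing TRPA1 and TRPV1, fluorescence read at 488/514 nm after baseline subtraction, recorded every 2 s over 10 min, ionomycin 10 µM and buffer as controls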
[1] = Table 1(c), 1 mM, relative to AITC 30 μM
[2] = Table 1(d), 1 mM, relative to AITC 30 μM
[3] = Table 1(c), 100 μM (*), relative to AITC 30 μM
[4] = Table 1(e), 1 mM, relative to AITC 30 μM
[5] = Table 1(d), 100 μM (*), relative to AITC 30 μM

`CCCCCC(=O)c1ccco1` [2-Hexanoylfuran] was tested, and the activation at 1000 µM (human TRPA1; [1]) was 118% and the “A1V1 activation, % of agonist value” (TRPA1V1; [1]) was 109%.

`CC=CC(=O)CC` [2-Hexen-4-one] was tested, and the activation at 1000 µM (human TRPA1; [2]) was 53% and the “A1V1 activation, % of agonist value” (TRPA1V1; [2]) was 24.5%.

In the case of `CCCCCCCCCC(C)C=O` (centres unmarked) [2-Methylundecanal], the activation at 100 µM (human TRPA1; [3]) is reported as 54.9% and the “A1V1 activation, % of agonist value” (TRPA1V1; [3]) is reported as 57.3%.

In the case of `CCCCCC=CC(=O)O` [2-Octenoic acid], the activation at 1000 µM (human TRPA1; [1]) is reported as 55.9% and the “A1V1 activation, % of agonist value” (TRPA1V1; [1]) is reported as 61.77%.

In the case of `CC=C(C=O)c1ccccc1` [2-Phenyl-2-butenal], the activation at 1000 µM (human TRPA1) is reported as 65.8% and the “A1V1 activation, % of agonist value” (TRPA1V1) is reported as 82.8%.

In the case of `CC(C=O)c1ccccc1` (centres unmarked) [2-Phenylpropionaldehyde], the activation at 1000 µM (human TRPA1; [1]) is reported as 105% and the “A1V1 activation, % of agonist value” (TRPA1V1; [1]) is reported as 106.9%.

With `CC(C)C(=O)OCC(C)c1ccccc1` (centres unmarked) [2-Phenylpropyl isobutyrate] the activation at 1000 µM (human TRPA1; [4]) was 67.4% and the “A1V1 activation, % of agonist value” (TRPA1V1; [4]) was 102.3%.

With `CCCCCCCCCCC=CC=O` [2-Tridecenal] the activation at 100 µM (human TRPA1; [5]) was 76.3%, the “A1V1 activation, % of agonist value” (TRPA1V1; [1]) was 102% and 101% and the “A1V1 activation, % of agonist value” (TRPA1V1; [5]) was 43.5%.

`CC/C=C\CC/C=C/C=O` [2-trans-6-cis-Nonadienal] was tested, and the “A1 activation, % of agonist value” (human TRPA1; [1]) was 77.3% and the “A1V1 activation, % of agonist value” (TRPA1V1; [1]) was 81.22%.

`CC(=O)c1ccc(C)cc1C` [2′,4′-Dimethylacetophenone] was tested, and the activation at 1000 µM (human TRPA1; [4]) was 24.4% and the “A1V1 activation, % of agonist value” (TRPA1V1; [4]) was 45.30%.

With `C=C(C)CCCC(C)CCO` (centres unmarked) [3,7-Dimethyl-7-octen-1-ol] the activation at 1000 µM (human TRPA1; [2]) was 93.7% and the “A1V1 activation, % of agonist value” (TRPA1V1; [2]) was 70.7%.

In the case of `OCC(=CCc1ccco1)c1ccccc1` [3-(2-Furfuryl)-2-phenylpropenol], the “A1 activation, % of agonist value” (human TRPA1; [3]) is reported as 81.3% and the “A1V1 activation, % of agonist value” (TRPA1V1; [3]) is reported as 72.4%.

`O=CC=Cc1ccco1` [3-(2-Furyl)acrolein] was tested, and the activation at 1000 µM (human TRPA1; [1]) was 68.4% and the “A1V1 activation, % of agonist value” (TRPA1V1; [1]) was 66.5%.

`CCCC(CCOC(C)=O)SC(C)=O` (centres unmarked) [3-(Acetylmercapto)hexyl acetate] was tested, and the activation at 1000 µM (human TRPA1; [4]) was 22.3% and the “A1V1 activation, % of agonist value” (TRPA1V1; [4]) was 52.79%.

`CCCC(CCOC(C)=O)SC` (centres unmarked) [3-(Methylthio)hexyl acetate] was tested, and the activation at 1000 µM (human TRPA1; [1]) was 97.9% and the “A1V1 activation, % of agonist value” (TRPA1V1; [1]) was 87.6%.

With `CSCCC=O` [3-(Methylthio)propionaldehyde] the activation at 1000 µM (human TRPA1; [2]) was 53.8% and the “A1V1 activation, % of agonist value” (TRPA1V1; [2]) was 32.4%.

`CC(=O)c1cc(C)oc1C` [3-Acetyl-2,5-dimethylfuran] was tested, and the activation at 1000 µM (human TRPA1; [1]) was 73.5% and the “A1V1 activation, % of agonist value” (TRPA1V1; [1]) was 61%.

`C=CCCN=C=S` [3-Butenyl isothiocyanate] was tested, and the activation at 1000 µM (human TRPA1; [1]) was 99.4% and the “A1V1 activation, % of agonist value” (TRPA1V1; [1]) was 85.8%.

In the case of `CCCC=C1OC(=O)c2ccccc21` [3-Butylidenephthalide], the activation at 1000 µM (human TRPA1; [1]) is reported as 119% and the “A1V1 activation, % of agonist value” (TRPA1V1; [1]) is reported as 115.4%.

For `CCCC=CC(C)=O` [3-Hepten-2-one], the activation at 1000 µM (human TRPA1; [2]) was 82% and the “A1V1 activation, % of agonist value” (TRPA1V1; [2]) was 59%.

With `CC1=CC(=O)CCC1` [3-Methyl-2-cyclohexen-1-one] the activation at 1000 µM (human TRPA1; [1]) was 94.5% and the “A1V1 activation, % of agonist value” (TRPA1V1; [1]) was 94.76%.

For `CC(C)CCN=C=S` [3-Methylbutyl isothiocyanate], the activation at 1000 µM (human TRPA1; [4]) was 61.1% and the “A1V1 activation, % of agonist value” (TRPA1V1; [4]) was 111.2%.

With `CC=CC(C)=O` [3-Penten-2-one] the activation at 1000 µM (human TRPA1; [2]) was 64.2% and the “A1V1 activation, % of agonist value” (TRPA1V1; [2]) was 35%.

In the case of `CC1=NC(CC(C)C)SC1C` (centres unmarked) [3-Thiazoline, 4,5-dimethyl-2-isobutyl-], the activation at 1000 µM (human TRPA1; [1]) is reported as 142% and the “A1V1 activation, % of agonist value” (TRPA1V1; [1]) is reported as 138.7%.

`CCOc1ccc(C=O)cc1` [4-Ethoxybenzaldehyde] was tested, and the activation at 1000 µM (human TRPA1; [4]) was 62% and the “A1V1 activation, % of agonist value” (TRPA1V1; [4]) was 103%.

With `COc1ccc(CCC(C)=O)cc1` [4-Methoxybenzylacetone] the activation at 1000 µM (human TRPA1; [1]) was 62.3% and the “A1V1 activation, % of agonist value” (TRPA1V1; [1]) was 71.16%.

In the case of `CC(=O)OCc1ccc(C)cc1` [4-Methylbenzyl acetate], the activation at 1000 µM (human TRPA1; [4]) is reported as 58.9% and the “A1V1 activation, % of agonist value” (TRPA1V1; [4]) is reported as 88.05%.

In the case of `C=CCCC=O` [4-Pentenal], the activation at 1000 µM (human TRPA1; [1]) is reported as 75.4% and the “A1V1 activation, % of agonist value” (TRPA1V1; [1]) is reported as 84.24%.

In the case of `CC(C)CC=C(C=O)c1ccccc1` [5-Methy1-2-pheny1-2-hexenal], the “A1 activation, % of agonist value” (human TRPA1; [4]) is reported as 60.5% and the “A1V1 activation, % of agonist value” (TRPA1V1; [4]) is reported as 89.8%.

With `COc1ccc2ncccc2c1` [6-Methoxyquinoline] the activation at 1000 µM (human TRPA1; [4]) was 57.8% and the “A1V1 activation, % of agonist value” (TRPA1V1; [4]) was 130.5%.

With `C=CCCCCCCCCC=O` [10-Undecenal] the activation at 1000 µM (human TRPA1; [2]) was 61.8% and the “A1V1 activation, % of agonist value” (TRPA1V1; [2]) was 28%.

In the case of `CCCCCCCC/C=C/C=O` [(2E)-Undecenal], the “A1 activation, % of agonist value” (human TRPA1; [1]) is reported as 59.6% and the “A1V1 activation, % of agonist value” (TRPA1V1; [1]) is reported as 48.8%.

`CCCC/C=C/C=O` [(E)-2-Heptenal] was tested, and the activation at 1000 µM (human TRPA1; [1]) was 112% and the “A1V1 activation, % of agonist value” (TRPA1V1; [1]) was 96.6%.

`CCCCC/C=C/C=C/C=O` [(E,E)-2,4-Decadienal] was tested, and the activation at 1000 µM (human TRPA1; [2]) was 142% and the “A1V1 activation, % of agonist value” (TRPA1V1; [2]) was 46%.

For `CCCCCCC/C=C/C=C/C=O` [(E,E)-2,4-Dodecadienal], the activation at 1000 µM (human TRPA1; [2]) was 159% and the “A1V1 activation, % of agonist value” (TRPA1V1; [2]) was 55.4%.

In the case of `C/C=C/C=C/C=O` [(E,E)-2,4-Hexadienal], the activation at 1000 µM (human TRPA1; [1]) is reported as 92% and the “A1V1 activation, % of agonist value” (TRPA1V1; [1]) is reported as 108.71%.

With `CC/C=C/CC/C=C/C=O` [(E,E)-2,6-Nonadienal] the activation at 1000 µM (human TRPA1; [1]) was 87.1% and the “A1V1 activation, % of agonist value” (TRPA1V1; [1]) was 89.61%.

With `CC/C=C/C=C/CO` [(E,E)-Hepta-2,4-dien-1-ol] the activation at 1000 µM (human TRPA1; [1]) was 146% and the “A1V1 activation, % of agonist value” (TRPA1V1; [1]) was 133.3%.

`CC(C)=CCC[C@](C)(O)[C@@H]1CC=C(C)CC1` [(−)-Alpha-Bisabolol] was tested, and the “A1 activation, % of agonist value” (human TRPA1; [1]) was 71.26% and the “A1V1 activation, % of agonist value” (TRPA1V1; [1]) was 83.53%.

With `CCCOC(C)OCCc1ccccc1` (centres unmarked) [Acetaldehyde, phenethyl propyl acetal] the “A1 activation, % of agonist value” (human TRPA1; [2]) was 86.4% and the “A1V1 activation, % of agonist value” (TRPA1V1; [2]) was 62.2%.

In the case of `C=CCOC(=O)c1ccccc1N` [Allyl anthranilate], the activation at 1000 µM (human TRPA1; [1]) is reported as 73.8% and the “A1V1 activation, % of agonist value” (TRPA1V1; [1]) is reported as 75.03%.

`C=CCOC(=O)Cc1ccccc1` [Allyl phenylacetate] was tested, and the activation at 1000 µM (human TRPA1; [1]) was 86.2% and the “A1V1 activation, % of agonist value” (TRPA1V1; [1]) was 84.14%.

`C=CCCC(=O)/C=C/C1C(C)=CCCC1(C)C` (stereo not drawn) [Allyl-alpha-ionone] was tested, and the “A1 activation, % of agonist value” (human TRPA1; [4]) was 52.6% and the “A1V1 activation, % of agonist value” (TRPA1V1; [4]) was 89.7%.

With `COc1ccc(C=C(C)C=O)cc1` [Alpha Methyl-4-methoxycinnamaldehyde] the activation at 1000 µM (human TRPA1; [4]) was 67.1% and the “A1V1 activation, % of agonist value” (TRPA1V1; [4]) was 85.80%.

In the case of `CC(C)CC(O)Cc1ccccc1` (stereo not drawn) [Alpha-Isobutylphenethyl alcohol], the activation at 1000 µM (human TRPA1; [1]) is reported as 73% and the “A1V1 activation, % of agonist value” (TRPA1V1; [1]) is reported as 58.62%.

In the case of `CCCCCOC(=O)c1ccco1` [Amyl furoate], the “A1 activation, % of agonist value” (human TRPA1; [1]) is reported as 81.09% and the “A1V1 activation, % of agonist value” (TRPA1V1; [1]) is reported as 87.70%.

For `COc1ccc(COC=O)cc1` [Anisyl formate], the “A1 activation, % of agonist value” (human TRPA1; [1]) was 89.5% and the “A1V1 activation, % of agonist value” (TRPA1V1; [1]) was 78.2%.

For `OCc1ccccc1` [Benzenemethanol], the activation at 1000 µM (human TRPA1; [1]) was 79.6% and the “A1V1 activation, % of agonist value” (TRPA1V1; [1]) was 78.47%.

`O=C(c1ccccc1)C(O)c1ccccc1` (centres unmarked) [Benzoin] was tested, and the activation at 1000 µM (human TRPA1; [4]) was 26.2% and the “A1V1 activation, % of agonist value” (TRPA1V1; [4]) was 61.81%.

For `O=C(Nc1ccccc1C(=O)O)c1ccccc1` [Benzoylanthranilic acid], the “A1 activation, % of agonist value” (human TRPA1; [1]) was 145.9% and the “A1V1 activation, % of agonist value” (TRPA1V1; [1]) was 125.6%.

For `Cc1ccc(C(C)O)cc1` (stereo not drawn) [Benzyl alcohol, p,alpha-dimethyl-], the “A1 activation, % of agonist value” (human TRPA1; [1]) was 77.2% and the “A1V1 activation, % of agonist value” (TRPA1V1; [1]) was 71.8%.

`CCCC(=O)OCc1ccccc1` [Benzyl butyrate] was tested, and the activation at 1000 µM (human TRPA1; [1]) was 70% and the “A1V1 activation, % of agonist value” (TRPA1V1; [1]) was 64.7%.

`CCC(=O)OCc1ccccc1` [Benzyl propionate] was tested, and the activation at 1000 µM (human TRPA1; [1]) was 103% and the “A1V1 activation, % of agonist value” (TRPA1V1; [1]) was 90.7%.
